Patent publication US20090144853A1, “Control of Gene Expression in Plants” (UNIVERSITY OF DURHAM, priority 2005, published 2009)

Experiments:
LRI-1 promoter = assay: GUS histochemical staining of LRI-1 promoter trap seedlings grown with hormones or hormone signalling inhibitors; type: in vivo, Arabidopsis thaliana
Description: (§1) The expression of the GUS promoter trap was analysed over a developmental time course in uninfected Arabidopsis seedlings that had been grown aseptically on a synthetic growth medium. Prior to analysis, seeds of the transgenic line were surface sterilised by treatment with 70% (v/v) ethanol for 3 minutes and 10% (v/v) commercial bleach for 20 minutes. The seeds were then washed with water and grown on half-strength Murashige and Skoog medium (½MS), supplemented with 10 g/l sucrose. The seedlings were grown in the presence of continuous light at 25° C. Tissue localisation of the GUS enzyme activity was determined at intervals after germination by staining for up to 12 hours at 37° C. in 1 mM 5-bromo-4-chloro-3-indoyl-β-D-glucuronic acid (X-gluc), according to the method of Jefferson et al (1987, EMBO J. 6, 3901-3907), wherein the method was modified by the use of buffer comprising 100 mM sodium phosphate (pH 7.0), 10 mM EDTA, 0.1% (v/v) Triton X-100 and 1 mM potassium ferricyanide to inhibit diffusion of the reaction intermediate. This solution was known as GUS buffer. Excess chlorophyll was removed by soaking the stained tissues in 70% (v/v) ethanol.
(§2) In order to investigate the regulation of the LRI-1 promoter activity, seeds that were homozygous for the LRI-1 gene fusion were germinated aseptically on ½MS10 medium in the presence or absence of hormones. At 9 dpg, the seedlings were subsequently transferred to ½MS10 medium containing either hormones or inhibitors of hormone signalling. Hormone treatments used for the purposes of this invention included, but were not limited to: 0.25, 2.5 or 10 μM 1-naphthaleneacetic acid (NAA, a synthetic auxin); 0.25, 2.5 or 10 μM kinetin (a synthetic cytokinin); 10 or 100 μM silver nitrate (an inhibitor of ethylene signalling); 10 or 100 μM 1-aminocyclopropane-1-carboxylic acid (ACC, a precursor of ethylene); 10 or 100 μM naphthylphthalamic acid (NPA) or 10 μM triiodobenozoic acid (TIBA). NPA and TIBA are inhibitors of polar auxin transport. After growth on medium in the presence or absence of hormones, the seedlings were transferred to a solution of GUS buffer and analysed for GUS activity (indicated by the presence of a blue precipitate).

AtPRB2 promoter = assay: GUS activity of 2.47 kb AtPRB2 promoter fragment::GUS transgenic seedlings treated with exogenous auxin; type: in vivo, Arabidopsis thaliana; conditions: 9 dpg on ½MS10, then 2.5 μM for a further 1, 3 or 5 days; except at the root tips
Description: To confirm that the 5′ flanking sequence upstream of the left T-DNA was responsible for the observed GUS activity in line LRI-1, the sequence was cloned and fused to each of the gusA and the GFP reporter genes respectively. The technique of PCR was used to amplify a 1.47 kb genomic fragment immediately upstream of the left T-DNA border. This 1.47 kb fragment was cloned upstream of the respective reporter genes and subsequently introduced into Arabidopsis thaliana plants by the dipping method of Agrobacterium tumefaciens-mediated transformation (Clough and Bent 1998 Plant J. 16, 735-743). In order to determine whether the promoter activity of the cloned sequence pLRI-1 was similar to the promoter region upstream of gene AtPRB2, a 2.47 kb fragment immediately upstream of the gene was cloned. In addition, shorter fragments which were 1 kb, 0.5 kb and 0.2 kb upstream of AtPRB2 were cloned and fused to the gusA reporter gene in the binary vector pΔGUSCIRCE (Casson et al, 2002 Plant Cell 14, 1705-1721), before introduction into plants by Agrobacterium-mediated transformation.
Using a similar approach, the activity of the 2.47 kb AtPRB2 gene fragment was determined in transgenic Arabidopsis lines. […]

[1] = tested on: Arabidopsis thaliana seedlings; assay: Root development of LRI-1 seedlings grown with hormones or hormone signalling inhibitors; type: in vivo
Description: as §1, §2

[2] = 9 days without compound, then 10 μM for a further 2 days
[3] = grown on 2.5 μM or 10 μM for up to 9 days
[4] = transferred to compound after growth on hormone-free medium, higher concentrations

## NC1(C(=O)O)CC1 [ACC, 1-aminocyclopropane-1-carboxylic acid]
LRI-1 promoter; germinated and grown in presence of 10 μM for up to 9 dpg
  level of GUS activity: reduction in the level of GUS activity
LRI-1 promoter; grown in presence of 100 μM, stronger expression at the base of lateral roots
  GUS activity: induction of GUS activity in the hypocotyl

## O=C(O)Cc1cccc2ccccc12 [NAA, 1-naphthaleneacetic acid]
AtPRB2 promoter
  AtPRB2::GUS activity: strong induction of AtPRB2::GUS activity throughout the root
[1]; after transfer at 9 dpg, 2.5 μM NAA
  adventitious root development: developed adventitious roots on the hypocotyl
[1]; grown for 9 dpg in presence of auxin, roots GUS-positive
  adventitious root development: adventitious roots developed from the shortened hypocotyl
[1]; seedlings germinated on ½MS10 in presence of NAA, most prominent at 10 μM
  root elongation: dramatic reduction in root elongation
LRI-1 promoter; 9 dpg on ½MS10, then transfer to 0.25, 2.5 or 10 μM NAA for 1, 3 or 5 days, except at the root tip
  GUS activity in root: strong GUS activity throughout the root
LRI-1 promoter; after transfer at 9 dpg, two lower concentrations of NAA tested
  GUS activity in aerial parts: No GUS activity was detected
LRI-1 promoter; seedlings germinated on ½MS10 in presence of NAA (0.25, 2.5 or 10 μM), most prominent at 10 μM
  GUS activity: strong throughout the root of the seedling
LRI-1 promoter; seedlings treated with 2.5 μM exogenous auxin
  LRI-1::GUS expression: induction of LRI-1::GUS expression throughout the Arabidopsis root

## O=C(O)c1cc(I)cc(I)c1I [TIBA, triiodobenozoic acid]
[1]; [2]
  new lateral root formation: inhibition of new lateral root formation
[1]; germinated and grown 5 dpg in presence of 10 μM
  lateral root development: No lateral root development was observed
LRI-1 promoter; [2]
  existing GUS activity at previously formed lateral roots: remained unaffected
LRI-1 promoter; grown 5 dpg in presence of 10 μM, some seedlings, at sites where lateral roots would normally emerge
  GUS activity: localised but low level GUS activity

## c1coc(CNc2ncnc3[nH]cnc23)c1 [kinetin]
[1]; [3]
  lateral root formation: no lateral root formation was observed
[1]; [4]
  lateral root formation: reduction in lateral root formation
LRI-1 promoter; [3]
  GUS activity: detected as normal
LRI-1 promoter; [4]
  GUS activity: detectable as normal

## O=[N+]([O-])[O-].[Ag+] [silver nitrate]
LRI-1 promoter; germination and growth for 3, 5 or 9 days in presence of 10 μM
  GUS activity associated with the LRI-1 promoter: reduction in GUS activity
